Data taken from ChEMBL document CHEMBL4308841, “Synthesis, in vitro antiproliferative activity, and kinase inhibitory effects of pyrazole-containing diarylureas and diarylamides” (Eur J Med Chem, 2018).
pIC50: −log10 of the molar value.

Columns and labels:
[1] = system: BT-549; assay: Growth inhibition of human BT549 cells assessed as cell growth at 100 uM incubated for 48 hrs by sulforhodamine B assay relative to control; type: functional; details: BT-549, 48 h, read-out: Activity
[2] = system: NCI-H322M; assay: Growth inhibition of human NCI-H322M cells assessed as cell growth at 100 uM incubated for 48 hrs by sulforhodamine B assay relative to control; type: functional; details: read-out: Activity
[3] = system: BT-549; assay: Growth inhibition of human BT549 cells incubated for 48 hrs by sulforhodamine B assay; type: functional, cell-based; details: BT-549, 48 h
[4] = system: HT-29; assay: Growth inhibition of human HT-29 cells assessed as cell growth at 10 uM incubated for 48 hrs by sulforhodamine B assay relative to control; type: functional; details: HT-29, 48 h, read-out: Activity
[5] = system: SN12C; assay: Growth inhibition of human SN12C cells incubated for 48 hrs by sulforhodamine B assay; type: functional, cell-based
[6] = system: SW-620; assay: Growth inhibition of human SW620 cells assessed as cell growth at 1 uM incubated for 48 hrs by sulforhodamine B assay relative to control; type: functional; details: SW-620, 48 h, read-out: Activity
[7] = system: SN12C; assay: Growth inhibition of human SN12C cells assessed as cell growth at 0.01 uM incubated for 48 hrs by sulforhodamine B assay relative to control; type: functional; details: read-out: Activity
[8] = system: DU-145; assay: Growth inhibition of human DU145 cells assessed as cell growth at 0.1 uM incubated for 48 hrs by sulforhodamine B assay relative to control; type: functional; details: DU-145, 48 h, read-out: Activity
[9] = system: HCT-15; assay: Growth inhibition of human HCT15 cells assessed as cell growth at 0.1 uM incubated for 48 hrs by sulforhodamine B assay relative to control; type: functional; details: HCT-15, 48 h, read-out: Activity
[10] = system: MDA-MB-435; assay: Growth inhibition of human MDA-MB-435 cells assessed as cell growth at 1 uM incubated for 48 hrs by sulforhodamine B assay relative to control; type: functional; details: MDA-MB-435, 48 h, read-out: Activity
[11] = system: SF-268; assay: Growth inhibition of human SF268 cells assessed as cell growth at 0.01 uM incubated for 48 hrs by sulforhodamine B assay relative to control; type: functional; details: SF-268, 48 h, read-out: Activity
[12] = system: MOLT-4; assay: Growth inhibition of human MOLT4 cells assessed as cell growth at 1 uM incubated for 48 hrs by sulforhodamine B assay relative to control; type: functional; details: MOLT-4, 48 h, read-out: Activity
[13] = system: SNB-75; assay: Growth inhibition of human SNB75 cells assessed as cell growth at 1 uM incubated for 48 hrs by sulforhodamine B assay relative to control; type: functional; details: SNB-75, 48 h, read-out: Activity
[14] = system: HT-29; assay: Growth inhibition of human HT-29 cells incubated for 48 hrs by sulforhodamine B assay; type: functional, cell-based; details: HT-29, 48 h
[15] = system: UO-31; assay: Growth inhibition of human UO31 cells assessed as cell growth at 0.1 uM incubated for 48 hrs by sulforhodamine B assay relative to control; type: functional; details: UO-31, 48 h, read-out: Activity
[16] = system: MDA-MB-468; assay: Growth inhibition of human MDA-MB-468 cells assessed as cell growth at 0.01 uM incubated for 48 hrs by sulforhodamine B assay relative to control; type: functional; details: MDA-MB-468, 48 h, read-out: Activity
[17] = system: RXF 393; assay: Growth inhibition of human RXF393 cells assessed as cell growth at 1 uM incubated for 48 hrs by sulforhodamine B assay relative to control; type: functional; details: RXF 393, 48 h, read-out: Activity
[18] = system: OVCAR-8; assay: Growth inhibition of human OVCAR8 cells incubated for 48 hrs by sulforhodamine B assay; type: functional, cell-based; details: OVCAR-8, 48 h
[19] = system: MDA-MB-231; assay: Growth inhibition of human MDA-MB-231 cells assessed as cell growth at 1 uM incubated for 48 hrs by sulforhodamine B assay relative to control; type: functional; details: MDA-MB-231, 48 h, read-out: Activity
[20] = system: SK-MEL-28; assay: Growth inhibition of human SK-MEL-28 cells assessed as cell growth at 0.01 uM incubated for 48 hrs by sulforhodamine B assay relative to control; type: functional; details: SK-MEL-28, 48 h, read-out: Activity
[21] = system: HCT-15; assay: Growth inhibition of human HCT15 cells incubated for 48 hrs by sulforhodamine B assay; type: functional, cell-based; details: HCT-15, 48 h
[22] = system: A549; assay: Growth inhibition of human A549/ATCC cells assessed as cell growth at 0.01 uM incubated for 48 hrs by sulforhodamine B assay relative to control; type: functional; details: A549, 48 h, read-out: Activity
[23] = system: OVCAR-5; assay: Growth inhibition of human OVCAR5 cells assessed as cell growth at 0.01 uM incubated for 48 hrs by sulforhodamine B assay relative to control; type: functional; details: OVCAR-5, 48 h, read-out: Activity
[24] = system: OVCAR-8; assay: Growth inhibition of human OVCAR8 cells assessed as cell growth at 0.1 uM incubated for 48 hrs by sulforhodamine B assay relative to control; type: functional; details: OVCAR-8, 48 h, read-out: Activity
[25] = system: HT-29; assay: Growth inhibition of human HT-29 cells assessed as cell growth at 0.1 uM incubated for 48 hrs by sulforhodamine B assay relative to control; type: functional; details: HT-29, 48 h, read-out: Activity
[26] = system: A498; assay: Growth inhibition of human A498 cells assessed as cell growth at 1 uM incubated for 48 hrs by sulforhodamine B assay relative to control; type: functional; details: A498, 48 h, read-out: Activity
[27] = system: K562; assay: Growth inhibition of human K562 cells assessed as cell growth at 0.1 uM incubated for 48 hrs by sulforhodamine B assay relative to control; type: functional; details: K562, 48 h, read-out: Activity
[28] = system: CCRF-CEM; assay: Growth inhibition of human CCRF-CEM cells incubated for 48 hrs by sulforhodamine B assay; type: functional, cell-based
[29] = read-out: pLC50 (the source's name) (converted)
[30] = read-out: LC50 (the source's name)

## COc1cc(Cl)cc(-c2nn(-c3cccc(NC(=O)Nc4cc(C(F)(F)F)cc(C(F)(F)F)c4)c3)cc2-c2ccncc2)c1
[1]
  growth at 100 µM: -80%
[2]
  growth at 100 µM: -78%
[3]
  pIC50: 5.65
[3]; read-out: GI50
  GI50: 2220 nM
[3]; read-out: TGI
  TGI: 7140 nM
[3]; read-out: pGI50 (converted)
  GI50: 2820 nM
[3]; [29]
  CC50: 61700 nM
[3]; read-out: pTGI (converted)
  TGI: 7080 nM
[4]
  growth at 10 µM: 3.93%
[5]
  pIC50: 6.41
[5]; read-out: GI50
  GI50: 356 nM
[5]; read-out: LC50
  LC50: 29.5 nM
[5]; read-out: TGI
  TGI: 1980 nM
[5]; read-out: pGI50 (converted)
  GI50: 389 nM
[5]; read-out: pLC50 (converted)
  LC50: 29500 nM
[5]; read-out: pTGI (converted)
  TGI: 2000 nM
[6]
  growth at 1 µM: 19%
[7]
  growth at 0.01 µM: 96%
[8]
  growth at 0.1 µM: 95%
[9]
  growth at 0.1 µM: 90%
[10]
  growth at 1 µM: 22%
[11]
  growth at 0.01 µM: 97%
[12]
  growth at 1 µM: 10%
[13]
  growth at 1 µM: 48%
[14]
  pIC50: 6.35
[14]; read-out: GI50
  GI50: 453 nM
[14]; [30]
  CC50: 12.6 nM
[14]; read-out: TGI
  TGI: 2210 nM
[14]; read-out: pGI50 (converted)
  GI50: 457 nM
[14]; [29]
  CC50: 12900 nM
[14]; read-out: pTGI (converted)
  TGI: 2820 nM
[15]
  growth at 0.1 µM: 75%
[16]
  growth at 0.01 µM: 97%
[17]
  growth at 1 µM: 50%
[18]
  pIC50: 6.41
[18]; read-out: GI50
  GI50: 391 nM
[18]; read-out: TGI
  TGI: 2190 nM
[18]; read-out: pGI50 (converted)
  GI50: 389 nM
[18]; [29]
  CC50: 47900 nM
[18]; read-out: pTGI (converted)
  TGI: 2190 nM
[19]
  growth at 1 µM: 29%
[20]
  growth at 0.01 µM: 103%
[21]
  pIC50: 6.46
[21]; read-out: GI50
  GI50: 352 nM
[21]; read-out: TGI
  TGI: 2250 nM
[21]; read-out: pGI50 (converted)
  GI50: 355 nM
[21]; [29]
  CC50: 74100 nM
[21]; read-out: pTGI (converted)
  TGI: 2820 nM
[22]
  growth at 0.01 µM: 100%
[23]
  growth at 0.01 µM: 99%
[24]
  growth at 0.1 µM: 105%
[25]
  growth at 0.1 µM: 101%
[26]
  growth at 1 µM: 37%
[27]
  growth at 0.1 µM: 91%
[28]
  pIC50: 6.57
[28]; read-out: GI50
  GI50: 273 nM
[28]; [30]
  CC50: > 100000 nM
[28]; read-out: TGI
  TGI: 1330 nM
[28]; read-out: pGI50 (converted)
  GI50: 275 nM
[28]; [29]
  CC50: > 100000 nM
[28]; read-out: pTGI (converted)
  TGI: 1350 nM

## O=C(Nc1cccc(-n2cc(-c3ccncc3)c(-c3cc(O)cc(Cl)c3)n2)c1)c1cc(C(F)(F)F)cc(C(F)(F)F)c1
[1]
  growth at 100 µM: -12%
[2]
  growth at 100 µM: 13%
[3]; read-out: GI50
  GI50: 4580 nM
[3]; [30]
  CC50: > 100000 nM
[3]; read-out: TGI
  TGI: 48800 nM
[3]; read-out: pGI50 (converted)
  GI50: 4680 nM
[3]; [29]
  CC50: > 100000 nM
[3]; read-out: pTGI (converted)
  TGI: 46800 nM
[4]
  growth at 10 µM: 19.7%
[5]; read-out: GI50
  GI50: 4770 nM
[5]; read-out: LC50
  LC50: > 100000 nM
[5]; read-out: TGI
  TGI: > 100000 nM
[5]; read-out: pGI50 (converted)
  GI50: 4790 nM
[5]; read-out: pLC50 (converted)
  LC50: > 100000 nM
[5]; read-out: pTGI (converted)
  TGI: > 100000 nM
[6]
  growth at 1 µM: 100%
[7]
  growth at 0.01 µM: 97%
[8]
  growth at 0.1 µM: 99%
[9]
  growth at 0.1 µM: 90%
[10]
  growth at 1 µM: 88%
[11]
  growth at 0.01 µM: 92%
[12]
  growth at 1 µM: 78%
[13]
  growth at 1 µM: 72%
[14]; read-out: GI50
  GI50: 2500 nM
[14]; [30]
  CC50: > 100000 nM
[14]; read-out: TGI
  TGI: 37700 nM
[14]; read-out: pGI50 (converted)
  GI50: 2510 nM
[14]; [29]
  CC50: > 100000 nM
[14]; read-out: pTGI (converted)
  TGI: 38000 nM
[15]
  growth at 0.1 µM: 70%
[16]
  growth at 0.01 µM: 91%
[17]
  growth at 1 µM: 78%
[18]; read-out: GI50
  GI50: 3580 nM
[18]; [30]
  CC50: > 100000 nM
[18]; read-out: TGI
  TGI: > 100000 nM
[18]; read-out: pGI50 (converted)
  GI50: 3550 nM
[18]; [29]
  CC50: > 100000 nM
[18]; read-out: pTGI (converted)
  TGI: > 100000 nM
[19]
  growth at 1 µM: 70%
[20]
  growth at 0.01 µM: 99%
[21]; read-out: GI50
  GI50: 2500 nM
[21]; [30]
  CC50: > 100000 nM
[21]; read-out: TGI
  TGI: 14700 nM
[21]; read-out: pGI50 (converted)
  GI50: 2570 nM
[21]; [29]
  CC50: > 100000 nM
[21]; read-out: pTGI (converted)
  TGI: 14800 nM
[22]
  growth at 0.01 µM: 95%
[23]
  growth at 0.01 µM: 92%
[24]
  growth at 0.1 µM: 100%
[25]
  growth at 0.1 µM: 91%
[26]
  growth at 1 µM: 78%
[27]
  growth at 0.1 µM: 89%
[28]; read-out: GI50
  GI50: 2580 nM
[28]; [30]
  CC50: > 100000 nM
[28]; read-out: TGI
  TGI: > 100000 nM
[28]; read-out: pGI50 (converted)
  GI50: 2690 nM
[28]; [29]
  CC50: > 100000 nM
[28]; read-out: pTGI (converted)
  TGI: > 100000 nM
